# According to article PMC7504721, “Targeting the Initiator Protease of the Classical Pathway of Complement Using Fragment-Based Drug Discovery” (Molecules, 2020):
# Molecular target: T1, full-length C1r (Homo sapiens, UniProt P00736)
# T1 construct: purchased Complement Technology (CompTech)
# T1 sequence (P00736 18-463 limits assumed): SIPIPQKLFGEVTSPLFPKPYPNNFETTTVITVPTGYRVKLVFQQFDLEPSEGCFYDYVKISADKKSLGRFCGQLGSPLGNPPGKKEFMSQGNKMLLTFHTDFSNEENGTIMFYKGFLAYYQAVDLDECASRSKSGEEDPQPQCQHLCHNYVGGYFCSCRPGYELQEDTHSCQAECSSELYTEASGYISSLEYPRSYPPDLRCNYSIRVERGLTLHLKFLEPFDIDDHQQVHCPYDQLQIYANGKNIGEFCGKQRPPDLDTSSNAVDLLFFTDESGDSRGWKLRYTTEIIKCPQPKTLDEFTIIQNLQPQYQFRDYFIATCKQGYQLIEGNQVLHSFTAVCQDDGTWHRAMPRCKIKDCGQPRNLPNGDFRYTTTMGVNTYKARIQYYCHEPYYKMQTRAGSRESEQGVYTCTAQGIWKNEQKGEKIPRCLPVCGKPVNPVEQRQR
# T1 sequence (P00736 464-705 limits assumed): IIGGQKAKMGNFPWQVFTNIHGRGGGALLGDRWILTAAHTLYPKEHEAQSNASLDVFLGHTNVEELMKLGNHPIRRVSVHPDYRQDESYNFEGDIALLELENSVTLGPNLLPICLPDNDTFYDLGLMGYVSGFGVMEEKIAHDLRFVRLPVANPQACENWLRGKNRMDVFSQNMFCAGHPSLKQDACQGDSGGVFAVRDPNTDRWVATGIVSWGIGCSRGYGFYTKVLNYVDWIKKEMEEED
# Experiment: SPR domain mapping, full-length C1r surface
# Type: binding
# Conditions: duplicate
# Excerpt: Figure 5 Selectivity and mechanistic analysis of CMP-1611 and CMP-1696. (A) Chemical structure of CMP-1611. (B) Chemical structure of CMP-1696. (C) Dose-dependent inhibition by CMP-1611 and CMP-1696 in a classical pathway-specific ELISA. Data were fit with GraphPad Prism using non-linear regression with a log(inhibitor) vs. response model. […] The CMP-778 inhibitory response could not be fit to a dose-response inhibition model. (D) Complement pathway selectivity of CMP-1611 and CMP-1696. Compounds were assessed for their ability to inhibit activation of complement via the lectin and alternative pathways using single doses of 500 μM compound in triplicate. To ensure only lectin pathway activation, 2% (v/v) C1q-depleted serum (CompTech) was used and mannan was used as the activator. To match serum sources and amounts for this assay, the classical pathway assays were repeated here using serum from CompTech at 2% (v/v) final concentration. Alternative pathway activation assays were performed using 20% (v/v) serum (CompTech), alternative pathway buffers, and C3b detection (see Methods and Materials for details). […] We then injected each compound simultaneously over the three surfaces at 500 μM and measured binding responses. […] All sensorgrams were reference and blank subtracted and analyzed using T200 Evaluation Software (GE Healthcare, Chicago, IL, USA).
"relative SPR binding response, full-length C1r (500 µM compound)","relative SPR binding response, full-length C1r (10 µM Futhan)",Structure (SMILES)
high binding,,COCc1nc(-c2ccc(OC3CNC3)cc2)no1 [CMP-1696]
,bound C1r and C1r-CCP2-SP similarly,"N=C(N)c1ccc2cc(OC(=O)c3ccc(N=C(N)N)cc3)ccc2c1 [Futhan, reference compound]"
